Positions of bridges follow the written chain, without caps; N, C: chain ends. Non-standard residues stand in square brackets, D forms with d. Residues, ends and D or L forms follow the SMILES beside them. Ahp(2) = CCCCC[C@H](N)C(=O)O; NHexGly = CCCCCCNCC(=O)O; Nle = CCCC[C@H](N)C(=O)O; Orn = NCCC[C@H](N)C(=O)O; Dab = NCC[C@H](N)C(=O)O; Nva = CCC[C@H](N)C(=O)O

For this test, the target named is T1, mouse VISTA (mVISTA) (Mus musculus, UniProt Q9D659).
T1 construct: expressed in transfected cells; host or cells: Human embryonic kidney 293T cells
T1 sequence (Q9D659 33-308): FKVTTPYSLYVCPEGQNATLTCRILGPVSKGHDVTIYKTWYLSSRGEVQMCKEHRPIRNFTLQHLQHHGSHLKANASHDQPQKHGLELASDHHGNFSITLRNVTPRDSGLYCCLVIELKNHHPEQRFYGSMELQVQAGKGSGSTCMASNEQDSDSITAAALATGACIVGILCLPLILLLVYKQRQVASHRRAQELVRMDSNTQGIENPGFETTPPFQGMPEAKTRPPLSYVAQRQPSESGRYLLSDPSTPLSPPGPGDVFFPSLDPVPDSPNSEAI
The experiment in a line: Cell-Based Binding High-Content Assay For mVISTA (HC CBA mVISTA). The settings on record: 293T cells expressing mouse VISTA; competition with biotinylated peptide (2 nM); read-out: HC CBA mVISTA IC50. In outline: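 Read-out: Alexa 647–streptavidin signal imaged on fixed, Hoechst-stained mVISTA-293T cells, with IC50 taken from a four-parameter logistic curve. Compounds competed with 2 nM biotinylated peptide for 30 min at room temperature, tested under both no-wash and wash (1 h compound, media exchange, 1 h) formats.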
A word on the IC50: it is the point on the concentration scale where inhibition reaches its midpoint. Consider `CCCCCCN1CC(=O)N[C@@H](Cc2ccc(O)cc2)C(=O)N[C@@H](CCCC)C(=O)N[C@@H](CC(N)=O)C(=O)N[C@@H](CCCNC(=N)N)C(=O)N[C@@H](CC(C)C)C(=O)N[C@@H](CCCCC)C(=O)N2CCC[C@H]2C(=O)N[C@@H](C(C)C)C(=O)N[C@@H](CO)C(=O)N[C@H](C(=O)NCC(N)=O)CSCC(=O)N[C@@H](Cc2ccccc2)C(=O)N[C@@H](Cc2ccc(O)cc2)C(=O)N[C@@H](CC(=O)O)C1=O` [Example 1033] ({CH2CO}-FYD[NHexGly]Y[Nle]NRL[Ahp(2)]PVSCG-NH2; thioether N-14), for which the IC50 stood at 16.7 nM. Take `CCCCCCN1CC(=O)N[C@@H](Cc2ccc(O)cc2)C(=O)N[C@@H](CCCCC)C(=O)N[C@@H](CC(N)=O)C(=O)N[C@@H](CCCNC(=N)N)C(=O)N[C@@H](CC(C)C)C(=O)N[C@@H](CCCCC)C(=O)N2CCC[C@H]2C(=O)N[C@@H](C(C)C)C(=O)N[C@@H](CO)C(=O)N[C@H](C(=O)NCC(=O)O)CSCC(=O)N[C@@H](Cc2ccccc2)C(=O)N[C@@H](Cc2ccc(O)cc2)C(=O)N[C@@H](CC(=O)O)C1=O` [Example 1034] ({CH2CO}-FYD[NHexGly]Y[Ahp(2)]NRL[Ahp(2)]PVSCG-OH; thioether N-14): the IC50 came out at 3.7 nM.

As to `CCCCCCN1CC(=O)N[C@@H](Cc2ccc(O)cc2)C(=O)N[C@@H](CCCCC)C(=O)N[C@@H](CC(N)=O)C(=O)N[C@@H](CCCCN)C(=O)N[C@@H](CC(C)C)C(=O)N[C@@H](CCCCC)C(=O)N2CCC[C@H]2C(=O)N[C@@H](C(C)C)C(=O)N[C@@H](CO)C(=O)N[C@H](C(=O)NCC(N)=O)CSCC(=O)N[C@@H](Cc2ccccc2)C(=O)N[C@@H](Cc2ccc(O)cc2)C(=O)N[C@@H](CC(=O)O)C1=O` [Example 1035] ({CH2CO}-FYD[NHexGly]Y[Ahp(2)]NKL[Ahp(2)]PVSCG-NH2; thioether N-14), the IC50 turned out to be 30.4 nM. In the case of `CCCCCCN1CC(=O)N[C@@H](Cc2ccc(O)cc2)C(=O)N[C@@H](CCCCC)C(=O)N[C@@H](CC(N)=O)C(=O)N[C@@H](CCCN)C(=O)N[C@@H](CC(C)C)C(=O)N[C@@H](CCCCC)C(=O)N2CCC[C@H]2C(=O)N[C@@H](C(C)C)C(=O)N[C@@H](CO)C(=O)N[C@H](C(=O)NCC(N)=O)CSCC(=O)N[C@@H](Cc2ccccc2)C(=O)N[C@@H](Cc2ccc(O)cc2)C(=O)N[C@@H](CC(=O)O)C1=O` [Example 1036] ({CH2CO}-FYD[NHexGly]Y[Ahp(2)]N[Orn]L[Ahp(2)]PVSCG-NH2; thioether N-14) it was 20.1 nM. For `CCCCCCN1CC(=O)N[C@@H](Cc2ccc(O)cc2)C(=O)N[C@@H](CCCCC)C(=O)N[C@@H](CC(N)=O)C(=O)N[C@@H](CCN)C(=O)N[C@@H](CC(C)C)C(=O)N[C@@H](CCCCC)C(=O)N2CCC[C@H]2C(=O)N[C@@H](C(C)C)C(=O)N[C@@H](CO)C(=O)N[C@H](C(=O)NCC(N)=O)CSCC(=O)N[C@@H](Cc2ccccc2)C(=O)N[C@@H](Cc2ccc(O)cc2)C(=O)N[C@@H](CC(=O)O)C1=O` [Example 1037] ({CH2CO}-FYD[NHexGly]Y[Ahp(2)]N[Dab]L[Ahp(2)]PVSCG-NH2; thioether N-14), the IC50 turned out to be 36.4 nM. In the case of `CCCCCCN1CC(=O)N[C@@H](Cc2ccc(O)cc2)C(=O)N[C@@H](CCCCC)C(=O)N[C@@H](CC(=O)O)C(=O)N[C@@H](CCCNC(=N)N)C(=O)N[C@@H](CC(C)C)C(=O)N[C@@H](CCCCC)C(=O)N2CCC[C@H]2C(=O)N[C@@H](C(C)C)C(=O)N[C@@H](CO)C(=O)N[C@H](C(=O)NCC(N)=O)CSCC(=O)N[C@@H](Cc2ccccc2)C(=O)N[C@@H](Cc2ccc(O)cc2)C(=O)N[C@@H](CC(=O)O)C1=O` [Example 1038] ({CH2CO}-FYD[NHexGly]Y[Ahp(2)]DRL[Ahp(2)]PVSCG-NH2; thioether N-14) it was 38.4 nM.

For the molecule `CCCCCCN1CC(=O)N[C@@H](Cc2ccc(O)cc2)C(=O)N[C@@H](CCCCC)C(=O)NCC(=O)N[C@@H](CCCNC(=N)N)C(=O)N[C@@H](CC(C)C)C(=O)N[C@@H](CCCCC)C(=O)N2CCC[C@H]2C(=O)N[C@@H](C(C)C)C(=O)N[C@@H](CO)C(=O)N[C@H](C(=O)NCC(N)=O)CSCC(=O)N[C@@H](Cc2ccccc2)C(=O)N[C@@H](Cc2ccc(O)cc2)C(=O)N[C@@H](CC(=O)O)C1=O` [Example 1039] ({CH2CO}-FYD[NHexGly]Y[Ahp(2)]GRL[Ahp(2)]PVSCG-NH2; thioether N-14), the IC50 stood at 2.2 nM. On to `CCCCCCN1CC(=O)N[C@@H](Cc2ccc(O)cc2)C(=O)N[C@@H](CC(C)C)C(=O)N[C@@H](CC(N)=O)C(=O)N[C@@H](CCCNC(=N)N)C(=O)N[C@@H](CC(C)C)C(=O)N[C@@H](CCCCC)C(=O)N2CCC[C@H]2C(=O)N[C@@H](C(C)C)C(=O)N[C@@H](CO)C(=O)N[C@H](C(=O)NCC(N)=O)CSCC(=O)N[C@@H](Cc2ccccc2)C(=O)N[C@@H](Cc2ccc(O)cc2)C(=O)N[C@@H](CC(=O)O)C1=O` [Example 1040] ({CH2CO}-FYD[NHexGly]YLNRL[Ahp(2)]PVSCG-NH2; thioether N-14), for which the IC50 is 5.4 nM. Under `CCCCCCN1CC(=O)N[C@@H](Cc2ccc(O)cc2)C(=O)N[C@@H](CC(C)C)C(=O)N[C@@H](CC(=O)O)C(=O)N[C@@H](CCCNC(=N)N)C(=O)N[C@@H](CC(C)C)C(=O)N[C@@H](CCCCC)C(=O)N2CCC[C@H]2C(=O)N[C@@H](C(C)C)C(=O)N[C@@H](CO)C(=O)N[C@H](C(=O)NCC(N)=O)CSCC(=O)N[C@@H](Cc2ccccc2)C(=O)N[C@@H](Cc2ccc(O)cc2)C(=O)N[C@@H](CC(=O)O)C1=O` [Example 1041] ({CH2CO}-FYD[NHexGly]YLDRL[Ahp(2)]PVSCG-NH2; thioether N-14) stands 24.9 nM; under `CCCCCCN1CC(=O)N[C@@H](Cc2ccc(O)cc2)C(=O)N[C@@H](CCCCC)C(=O)N[C@@H](C)C(=O)N[C@@H](CCCNC(=N)N)C(=O)N[C@@H](CC(C)C)C(=O)N[C@@H](CCCCC)C(=O)N2CCC[C@H]2C(=O)N[C@@H](C(C)C)C(=O)N[C@@H](CO)C(=O)N[C@H](C(=O)NCC(=O)O)CSCC(=O)N[C@@H](Cc2ccccc2)C(=O)N[C@@H](Cc2ccc(O)cc2)C(=O)N[C@@H](CC(=O)O)C1=O` [Example 1042] ({CH2CO}-FYD[NHexGly]Y[Ahp(2)]ARL[Ahp(2)]PVSCG-OH; thioether N-14), 36.3 nM. Under `CCCCCCN1CC(=O)N[C@@H](Cc2ccc(O)cc2)C(=O)N[C@@H](CC(C)C)C(=O)N[C@@H](CC(N)=O)C(=O)N[C@@H](CCCNC(=N)N)C(=O)N[C@@H](CC(C)C)C(=O)N[C@@H](CCCCC)C(=O)N2CCC[C@H]2C(=O)N[C@@H](C(C)C)C(=O)N[C@@H](CO)C(=O)N[C@H](C(=O)NCC(=O)O)CSCC(=O)N[C@@H](Cc2ccccc2)C(=O)N[C@@H](Cc2ccc(O)cc2)C(=O)N[C@@H](CC(=O)O)C1=O` [Example 1043] ({CH2CO}-FYD[NHexGly]YLNRL[Ahp(2)]PVSCG-OH; thioether N-14) stands 17.7 nM; under `CCCCCCN1CC(=O)N[C@@H](Cc2ccc(O)cc2)C(=O)N[C@@H](CCCCC)C(=O)NCC(=O)N[C@@H](CCCNC(=N)N)C(=O)N[C@@H](CC(C)C)C(=O)N[C@@H](CCCCC)C(=O)N2CCC[C@H]2C(=O)N[C@@H](C(C)C)C(=O)N[C@@H](CO)C(=O)N[C@H](C(=O)NCC(=O)O)CSCC(=O)N[C@@H](Cc2ccccc2)C(=O)N[C@@H](Cc2ccc(O)cc2)C(=O)N[C@@H](CC(=O)O)C1=O` [Example 1044] ({CH2CO}-FYD[NHexGly]Y[Ahp(2)]GRL[Ahp(2)]PVSCG-OH; thioether N-14), 21.4 nM; under `CCCCCCN1CC(=O)N[C@@H](Cc2ccc(O)cc2)C(=O)N[C@@H](CCCC)C(=O)N[C@@H](CC(N)=O)C(=O)N[C@@H](CCCNC(=N)N)C(=O)N[C@@H](CC(C)C)C(=O)N[C@@H](CCCCC)C(=O)N2CCC[C@H]2C(=O)N[C@@H](C(C)C)C(=O)N[C@@H](CO)C(=O)N[C@H](C(=O)NCC(=O)O)CSCC(=O)N[C@@H](Cc2ccccc2)C(=O)N[C@@H](Cc2ccc(O)cc2)C(=O)N[C@@H](CC(=O)O)C1=O` [Example 1046] ({CH2CO}-FYD[NHexGly]Y[Nle]NRL[Ahp(2)]PVSCG-OH; thioether N-14), 14 nM.

For the molecule `CCCCCCN1CC(=O)N[C@@H](Cc2ccc(O)cc2)C(=O)N[C@@H](CCC)C(=O)N[C@@H](CC(N)=O)C(=O)N[C@@H](CCCNC(=N)N)C(=O)N[C@@H](CC(C)C)C(=O)N[C@@H](CCCCC)C(=O)N2CCC[C@H]2C(=O)N[C@@H](C(C)C)C(=O)N[C@@H](CO)C(=O)N[C@H](C(=O)NCC(=O)O)CSCC(=O)N[C@@H](Cc2ccccc2)C(=O)N[C@@H](Cc2ccc(O)cc2)C(=O)N[C@@H](CC(=O)O)C1=O` [Example 1047] ({CH2CO}-FYD[NHexGly]Y[Nva]NRL[Ahp(2)]PVSCG-OH; thioether N-14), the IC50 was 32.2 nM. Under `CCCCCCN1CC(=O)N[C@@H](Cc2ccc(O)cc2)C(=O)N[C@@H](CCCC)C(=O)N[C@@H](CC(=O)O)C(=O)N[C@@H](CCCN)C(=O)N[C@@H](CC(C)C)C(=O)N[C@@H](CCCCC)C(=O)N2CCC[C@H]2C(=O)N[C@@H](C(C)C)C(=O)N[C@@H](CO)C(=O)N[C@H](C(=O)NCC(N)=O)CSCC(=O)N[C@@H](Cc2ccccc2)C(=O)N[C@@H](Cc2ccc(O)cc2)C(=O)N[C@@H](CC(=O)O)C1=O` [Example 1048] ({CH2CO}-FYD[NHexGly]Y[Nle]D[Orn]L[Ahp(2)]PVSCG-NH2; thioether N-14) stands 22.4 nM; under `CCCCCCN1CC(=O)N[C@@H](Cc2ccc(O)cc2)C(=O)N[C@@H](CC(C)C)C(=O)NCC(=O)N[C@@H](CCCNC(=N)N)C(=O)N[C@@H](CC(C)C)C(=O)N[C@@H](CCCCC)C(=O)N2CCC[C@H]2C(=O)N[C@@H](C(C)C)C(=O)N[C@@H](CO)C(=O)N[C@H](C(=O)NCC(N)=O)CSCC(=O)N[C@@H](Cc2ccccc2)C(=O)N[C@@H](Cc2ccc(O)cc2)C(=O)N[C@@H](CC(=O)O)C1=O` [Example 1049] ({CH2CO}-FYD[NHexGly]YLGRL[Ahp(2)]PVSCG-NH2; thioether N-14), 9.5 nM.
